Like-named read-outs stand apart in the source and are kept apart here.
Legend:
Parameters in all cases: species or system SD rats
dopamine D2 receptor = molecular target: T1, dopamine D2 receptor (Rattus norvegicus, UniProt P61169); experiment: dopamine D2 receptor binding test ([3H] Spiperone Binding Test); conditions: 1 nM [3H] Spiperone, rat corpus striatum, room temperature, 60 minutes
T1 construct: the receptor fraction prepared from the corpus striatum was molten and suspended; from tissue; host or cells: corpus striatum of SD rats (membrane fraction)
T1 sequence (P61169 whole entry): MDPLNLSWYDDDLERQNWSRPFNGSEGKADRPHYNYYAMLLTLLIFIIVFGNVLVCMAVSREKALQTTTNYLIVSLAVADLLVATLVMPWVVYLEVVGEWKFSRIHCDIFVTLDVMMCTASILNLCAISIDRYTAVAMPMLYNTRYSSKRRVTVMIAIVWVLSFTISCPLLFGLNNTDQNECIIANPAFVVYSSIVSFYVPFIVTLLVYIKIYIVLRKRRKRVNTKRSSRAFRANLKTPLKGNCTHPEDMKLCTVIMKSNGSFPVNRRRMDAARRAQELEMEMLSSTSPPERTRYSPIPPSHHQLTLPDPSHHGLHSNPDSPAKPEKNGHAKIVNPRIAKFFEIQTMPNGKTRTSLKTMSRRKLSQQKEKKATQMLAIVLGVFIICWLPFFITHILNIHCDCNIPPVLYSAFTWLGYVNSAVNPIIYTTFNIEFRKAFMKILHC
Outline: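 Rat (SD, 6–8 weeks) corpus striatum membranes in 50 mM Krebs-Tris pH 7.4 were incubated with 1 nM [3H]spiperone at room temperature for 60 minutes, with nonspecific binding defined by excess spiperone. IC50 came from probit analysis; Ki was derived using radioligand concentration and Scatchard Kd.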

serotonin S2 receptor = molecular target: T2, serotonin S2 receptor (Rattus norvegicus, UniProt P14842); experiment: serotonin S2 receptor binding test ([3H] Ketanserin Binding Test); conditions: 1 nM [3H] Ketanserin, rat cortex, 37° C., 15 minutes
T2 construct: The receptor fraction prepared from the cortex was molten and suspended; from tissue; host or cells: cerebral cortex of SD rats (membrane fraction)
T2 sequence (P14842 whole entry): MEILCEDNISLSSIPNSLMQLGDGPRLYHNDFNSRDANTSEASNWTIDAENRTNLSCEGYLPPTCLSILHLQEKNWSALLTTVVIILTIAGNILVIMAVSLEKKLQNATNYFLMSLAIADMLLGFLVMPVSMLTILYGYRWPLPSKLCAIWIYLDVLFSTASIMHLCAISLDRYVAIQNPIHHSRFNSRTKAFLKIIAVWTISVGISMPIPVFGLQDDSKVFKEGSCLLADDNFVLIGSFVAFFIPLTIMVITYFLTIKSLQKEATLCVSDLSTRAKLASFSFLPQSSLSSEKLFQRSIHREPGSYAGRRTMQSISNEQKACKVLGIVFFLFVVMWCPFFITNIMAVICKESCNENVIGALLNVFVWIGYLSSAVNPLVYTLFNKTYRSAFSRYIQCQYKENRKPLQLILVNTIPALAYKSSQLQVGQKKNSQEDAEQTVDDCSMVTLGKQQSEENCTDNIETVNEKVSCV
Outline: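 Rat (SD, 6–8 weeks) cortical membranes in 50 mM Tris-HCl pH 7.4 were incubated with 1 nM [3H]ketanserin for 15 min at 37 °C, then filtered and counted. Nonspecific binding was defined with methysergide. IC50 was obtained by probit analysis and converted to Ki using the Scatchard-derived Kd.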

adrenergic α1 receptor = adrenergic α1 receptor binding test ([3H] Prazosin Binding Test); conditions: 1 nM [3H] Prazosin, rat cortex, room temperature, 60 minutes
Outline: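 Rat (SD, 6-8 weeks) cerebral cortex membranes in 50 mM Tris-HCl pH 7.4 incubated with 1 nM [3H]prazosin for 60 min at room temperature; nonspecific binding defined with phentolamine. IC50 by probit method, converted to Ki using radioligand concentration and Scatchard-derived Kd.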

[1] = read-out: Ki value, dopamine D2 receptor

Structure (SMILES)	Ki (dopamine D2 receptor; [1]) [nM]	Ki (serotonin S2 receptor) [nM]	Ki (adrenergic α1 receptor) [nM]	Ki (dopamine D2 receptor; Ki value, dopamine D2 receptor) [nM]
CCN1CCN(c2cc(-c3ccccc3C)c(Cl)c(C(F)F)c2)CC1 [Example 185, 1-Ethyl-4-[3-(2-tolyl)-4-chloro-5-difluoromethyl]phenylpiperazine]	0.58	> 100	> 1000	–
CCN1CCN(c2cc(-c3ccccc3)c(OC)c(C(F)(F)CC)c2)CC1 [Example 186, 1-Ethyl-4-[3-phenyl-4-methoxy-5-(1,1-difluoropropyl)]phenylpiperazine]	2.96	4.29	> 1000	–
CCCS(=O)(=O)Nc1cc(N2CCN(CC)CC2)cc(-c2ccc(OC)cc2)c1Cl [Example 187, 1-Ethyl-4-[3-(4-methoxyphenyl)-4-chloro-5-propanesulfonyamino]phenylpiperazine]	0.54	38.2	7.8	–
CN1CCN(c2cc(NS(C)(=O)=O)c(Cl)c(-c3ccccc3Cl)c2)CC1 [Example 188, 1-Methyl-4-[3-(2-chlorophenyl)-4-chloro-5-methanesulfonylamino]phenylpiperazine]	1.33	47.8	19	–
CCCS(=O)(=O)Nc1cc(N2CCN(CC)CC2)cc(-c2ccc(Cl)cc2Cl)c1Cl [Example 189, 1-Ethyl-4-[3-(2,4-dichlorophenyl)-4-chloro-5-propanesulfonyamino]phenylpiperazine]	1.51	> 100	32.5	–
CCN1CCN(c2cc(-c3ccccc3C)c(Cl)c(C3SCCCS3)c2)CC1 [Example 190, 1-Ethyl-4-[3-(2-tolyl)-4-chloro-5-(1,3-dithian-2-yl)phenylpiperazinepropanedithio]phenylpiperazine]	40.4	18.5	> 1000	–
CCCS(=O)(=O)c1cc(N2CCN(CC)CC2)cc(-c2ccccc2)c1Cl [Example 191]	1.65	3.76	21.2	–
CCCS(=O)(=O)NCc1cc(N2CCN(CC)CC2)cc(-c2ccccc2C)c1Cl [Example 192, 1-Ethyl-4-[3-(2-tolyl)-4-chloro-5-propanesulfonylaminomethyl]phenylpiperazine]	> 100	374	550	–
CCCS(=O)(=O)c1cc(N2CCN(C)CC2)cc(-c2ccc(F)cc2)c1OC [Example 193, 1-Methyl-4-[3-(4-fluorophenyl)-4-methoxy-5-propanesulfonyl]phenylpiperazine]	19.3	1.61	585	–
CCCS(=O)(=O)Nc1cc(N2CCN(CC)CC2)cc(-c2ccccc2CC)c1Cl [Example 194, 1-Ethyl-4-[3-(2-ethylphenyl)-4-chloro-5-propanesulfonylamino]phenylpiperazine]	0.83	4.45	> 1000	–
CCS(=O)(=O)c1cc(N2CCN(CCO)CC2)cc(-c2ccc(F)cc2)c1OC [Example 195]	70.6	5.75	> 1000	–
CCCS(=O)(=O)Nc1cc(N2CCN(CC)CC2)cc(-c2ccccc2C=O)c1Cl [Example 196, 1-(2-Ethyl)-4-[3-(2-formylphenyl)-4-chloro-5-propanesulfonylamino]phenylpiperazine]	5.52	13.2	744	–
CCCS(=O)(=O)Nc1cc(N2CCN(CC)CC2)cc(-c2ccccc2C#N)c1Cl [Example 197, 1-Ethyl-4-[3-(2-cyanophenyl)-4-chloro-5-propanesulfonylamino]phenylpiperazine]	1.4	8.86	31.4	–
CCS(=O)(=O)c1cc(N2CCN(CCc3ccccn3)CC2)cc(-c2ccc(F)cc2)c1OC [Example 198, 1-[2-(2-Pyridyl)ethyl]-4-[3-(4-fluorophenyl)-4-methoxy-5-ethanesulfonyl]phenylpiperazine]	12.1	1.06	62.7	–
CCS(=O)(=O)c1cc(N2CCN(CCc3ccncc3)CC2)cc(-c2ccc(F)cc2)c1OC [Example 201, 1-[2-(4-Pyridyl)ethyl]-4-[3-(4-fluorophenyl)-4-methoxy-5-ethanesulfonyl]phenylpiperazine]	19.7	3.17	12.9	–
CCC(F)c1cc(N2CCN(C)CC2)cc(-c2ccccc2)c1Cl (stereo not drawn) [Example 206]	–	4.29	47.8	1.06
CCC(F)c1cc(N2CCN(C)CC2)cc(-c2ccccc2CO)c1Cl (stereo not drawn) [Example 207]	240	81.1	> 1000	–
CCC(F)c1cc(N2CCN(CC)CC2)cc(-c2ccccc2CF)c1Cl (stereo not drawn) [Example 208, 1-Ethyl-4-[3-(2-fluoromethylphenyl)-4-chloro-5-(1-fluoropropyl)]phenylpiperazine]	3.46	16.1	2380	–

From US6281214A, “Biphenyl derivatives” (Eisai Co., Ltd, priority 1994, dated 2001)
